These results are taken from patent US12583870B2, “Azaheteroaryl compound and application thereof” (SHANGHAI BLUERAY BIOPHARMA CO., LTD., priority 2019, dated 2026).

One experiment deals with KARPAS-422 cells. Put plainly: Cell proliferation analysis, KARPAS-422, 13 days, CellTiter-Glo. The class given is cell-based. The settings on record: Homo sapiens, 312 h. As for the experimental part:
Human B-cell non-Hodgkin lymphoma cells, KARPAS-422 S, were cultured in a culture flask using standard cell culture conditions. The medium contained 15% fetal bovine serum (FBS, Invitrogen, product number 10099-141) and 1% penicillin/streptomycin solution (P/S) RPMI-1640 (Invitrogen, product number 11875), and the culture flask was placed and cultured in a sterile incubator at the temperature of 37° C. and […] with a relative humidity of […] To detect the effect of PRC2 inhibitors on cell proliferation, cells in exponential growth phase were taken and seeded into a 96-well plate (Corning, product number 3904) at a density of 1×10^4 cells/well, and 100 μL of the medium was added into each well. Subsequently, the compounds at different concentrations disclosed in the present disclosure were added into the wells where cells had already been seeded (9 concentration gradients were provided for each compound, with the highest detection concentration at 10 μM, 3-fold gradient dilution) and two replicates in parallel were provided for each treatment concentration. DMSO was at a final concentration of 0.5%. Afterwards, viable cell numbers were determined using Vi-CELL (Beckman Coulter) every 3-4 days. Cells counted were seeded into a new 96-well plate at the same density (1×10^4 cells/well) each time. The wells were supplemented with a fresh medium to 100 μL and at the same time, compounds at different concentrations were added. The cells were cultured to day 13. 100 μL of CellTiter-Glo (CellTiter-GloCellTiter-GloCellTiter-GloCTG) (Promega, product number G7573) was added into each well. The plate was placed in the dark at room temperature for 10-20 minutes and the luminescence signal was read using SpectraMax i3× (Molecular Devices).

In experiment [1] the test system is trimethylation level of histone H3K27 in G401 cells. Put plainly: ELISA (H3K27 trimethylation) analysis in G401 cells. The class given is cell-based. The settings on record: Homo sapiens, G-401, 72 hours, H3K27me3 standardized to H3. As for the experimental part: 3-fold series dilution with DMSO was carried out on the representative compounds of the present disclosure; and 10 concentration gradients were detected for each compound, with the highest detection concentration of 10 μM. The compounds were diluted 200-fold into the G401 cells cultured in a 96-well plate (DMSO at a final concentration of 0.5%). After the cells, administered with the compound, were cultured for 72 hours, the trimethylation level of the histone H3K27 was detected using the ELISA method.
Extraction of the histone: in a 96-well plate, the compound-treated cells were washed three times with 1×PBS (10×PBS buffer (80 g NaCl (Sigma, product number S3014), 2 g KCl (Sigma, product number 60128), 14.4 g Na2HPO4 (Sigma, product number S5136), and 2.4 g KH2PO4 (Sigma, product number P9791) in 1 L of water, adjusting the pH to 7.4)). 100 μL of 0.4 N HCl was added into each well. The plate was placed at 4° C. and gently agitated for 2 hours to lyse the cells. The cell lysate was then neutralized with 80 μL of neutralization buffer (0.5 M disodium hydrogen phosphate, pH 12.5, 2.5 mM DTT; 1% cocktail (Sigma, product number P8340)) (the cell lysate and the neutralization buffer were thoroughly mixed to uniformity).
ELISA detection method: the cell lysate was transferred in parallel to two 384-well detection plates (PerkinElmer, OptiPlate-384HB, product number 6007290), wherein one of the plates was used to detect the H3K27 trimethylation level and the other plate was used to determine the level of H3. PBS was used to adjust the final volume to 50 μL/well. The plates were coated at 4° C. overnight. On the following day, the solution inside the wells was discarded and the plates were washed 5 times with TBST buffer (1×TBS (10×TBS: 24.2 g Tris (Sigma, product number T6066), 80 g NaCl (Sigma, product number S3014) in 1 L of water, adjusting the pH with HCl to 7.6), 0.1% Tween-20) and dried on an absorbent paper by inversion. 70 μL of blocking buffer (TBST, 5% BSA) was added into the coated reaction wells and the plates were incubated at room temperature for 1 hour. The blocking buffer was discarded and primary antibodies were added (30 μL/well). The desired primary antibodies were all diluted with a blocking buffer and the dilution factor was as follows: anti-H3K27me3 antibody (Cell Signaling Technology, product number 9733), 1:2000 dilution; anti-H3 antibody (Cell Signaling Technology, product number 4499), 1:10000 dilution. After the primary antibodies were added, the plates were placed at room temperature and incubated for 1 hour. After the plates were washed with TBST 5 times, the plates were dried by inversion. A secondary antibody (30 μL/well) was added to each of the reaction wells and the plates were incubated at room temperature for 1 hour. The secondary antibody (anti-rabbit antibody (Jackson ImmunoResearch, product number 111-035-003)) was diluted 2000-fold with a blocking buffer before use. After 1 hour, the plates were washed with TBST and dried by inversion. 30 μL of ECL substrate (Pierce, product number 34080) was added into each well and centrifuged at 2000 rpm for 30 seconds. The signal of each sample was detected using SpectraMax (Molecular Devices). Data processing: H3K27 methylation readings were first standardlized using H3 signals and 0.5% DMSO-treated samples was used as the control to calculate the inhibition percentage of the compounds. Data were fit to obtain Dose-Response curves using the GraphPad prism 5 program and the IC50 values of the test compounds were obtained.

`N#Cc1cnc2c(-c3cnc(NCc4c(F)ccc5c4CCO5)n4cnnc34)cc(F)cn12` [6-fluoro-8-(5-(((5-fluoro-2,3-dihydrobenzofuran-4-yl)methyl)amino)-[1,2,4]triazolo[4,3-c]pyrimidin-8-yl)imidazo[1,2-a]pyridine-3-carbonitrile]: the IC50 (as a rule, the concentration at which inhibition is half-maximal) stood at 0.0083 µM in the experiment on KARPAS-422 cells and 0.0089 µM in experiment [1].

Turning to `NC(=O)c1cnc2c(-c3cnc(NCc4c(F)ccc5c4CCO5)n4cnnc34)cc(F)cn12` [6-fluoro-8-(5-(((5-fluoro-2,3-dihydrobenzofuran-4-yl)methyl)amino)-[1,2,4]triazolo[4,3-c]pyrimidin-8-yl)imidazo[1,2-a]pyridine-3-carboxamide], the IC50 in the experiment with KARPAS-422 cells is 0.0046 µM; in experiment [1], 0.0134 µM.

Turning to `Fc1ccc2c(c1CNc1ncc(-c3cccc4nn[nH]c34)c3nncn13)CCO2` [8-(1H-benzo[d][1,2,3]triazol-7-yl)-N-((5-fluoro-2,3-dihydrobenzofuran-4-yl)methyl)-[1,2,4]triazolo[4,3-c]pyrimidin-5-amine], the IC50 in the experiment on KARPAS-422 cells is 0.0012 µM; in experiment [1] it was 0.0007 µM.

`Cc1nc2c(-c3cnc(NCc4c(F)ccc5c4CCO5)n4cnnc34)ccc(C)n2n1` [8-(2,5-dimethyl-[1,2,4]triazolo[1,5-a]pyridin-8-yl)-N-((5-fluoro-2,3-dihydrobenzofuran-4-yl)methyl)-[1,2,4]triazolo[4,3-c]pyrimidin-5-amine]: the half-maximal inhibitory concentration (IC50) (in the experiment with KARPAS-422 cells; in experiment [1]) was 0.0013 µM throughout.

In the case of `CN(C)c1nc2c(-c3cnc(NCc4c(F)ccc5c4CCO5)n4cnnc34)cc(F)cn2n1` [8-(2-(dimethylamino)-6-fluoro-[1,2,4]triazolo[1,5-a]pyridin-8-yl)-N-((5-fluoro-2,3-dihydrobenzofuran-4-yl)methyl)-[1,2,4]triazolo[4,3-c]pyrimidin-5-amine], the IC50 amounted to 0.0244 µM in the experiment on KARPAS-422 cells and 0.0018 µM in experiment [1].

Turning to `CN(C)c1nc2c(-c3cnc(NCc4c(F)ccc5c4CCO5)n4cnnc34)cccn2n1` [8-(2-(dimethylamino)-[1,2,4]triazolo[1,5-a]pyridin-8-yl)-N-((5-fluoro-2,3-dihydrobenzofuran-4-yl)methyl)-[1,2,4]triazolo[4,3-c]pyrimidin-5-amine], the half-inhibitory concentration (IC50) amounted to 0.0054 µM in the experiment on KARPAS-422 cells and 0.0084 µM in experiment [1].

For the molecule `Fc1ccc2c(c1CNc1ncc(-c3ccc(N4CC5(COC5)C4)n4ncnc34)c3nncn13)CCO2` [8-(5-(2-oxa-6-azaspiro[3.3]heptan-6-yl)-[1,2,4]triazolo[1,5-a]pyridin-8-yl)-N-((5-fluoro-2,3-dihydrobenzofuran-4-yl)methyl)-[1,2,4]triazolo[4,3-c]pyrimidin-5-amine], the results for the IC50 (in the experiment with KARPAS-422 cells; in experiment [1]) were 0.0018 µM and 0.0017 µM, respectively.

`Fc1ccc2c(c1CNc1ncc(-c3ccc(Cn4ccnc4)n4ncnc34)c3nncn13)CCO2` [8-(5-((1H-imidazol-1-yl)methyl)-[1,2,4]triazolo[1,5-a]pyridin-8-yl)-N-((5-fluoro-2,3-dihydrobenzofuran-4-yl)methyl)-[1,2,4]triazolo[4,3-c]pyrimidin-5-amine]: the IC50 with KARPAS-422 cells worked out at 0.0009 µM; in experiment [1], 0.0006 µM.

As to `COc1ccc(-c2cnc(NCc3c(F)ccc4c3CCO4)n3cnnc23)c2ncc(C#N)n12` [8-(5-(((5-fluoro-2,3-dihydrobenzofuran-4-yl)methyl)amino)-[1,2,4]triazolo[4,3-c]pyrimidin-8-yl)-5-methoxyimidazo[1,2-a]pyridine-3-carbonitrile], the half-maximal inhibitory concentration (IC50) amounted to 0.0062 µM with KARPAS-422 cells and 0.0039 µM in experiment [1].

For `Cc1ccc(-c2cnc(NCc3c(F)ccc4c3CCO4)n3cnnc23)c2ncc(C#N)n12` [8-(5-(((5-fluoro-2,3-dihydrobenzofuran-4-yl)methyl)amino)-[1,2,4]triazolo[4,3-c]pyrimidin-8-yl)-5-methylimidazo[1,2-a]pyridine-3-carbonitrile], the figures for the IC50 (in the experiment on KARPAS-422 cells; in experiment [1]) were 0.003 µM and 0.0052 µM, respectively.

On to `Cc1ccc(-c2cnc(NCc3c(F)ccc4c3CCO4)n3cnnc23)c2ncc(C(N)=O)n12` [8-(5-(((5-fluoro-2,3-dihydrobenzofuran-4-yl)methyl)amino)-[1,2,4]triazolo[4,3-c]pyrimidin-8-yl)-5-methylimidazo[1,2-a]pyridine-3-carboxamide], for which the IC50 with KARPAS-422 cells was 0.0022 µM; in experiment [1], 0.0035 µM.

With `N#Cc1cnc2c(-c3cnc(NCc4c(F)ccc5c4CCO5)n4cnnc34)ccc(N3CCOCC3)n12` [8-(5-(((5-fluoro-2,3-dihydrobenzofuran-4-yl)methyl)amino)-[1,2,4]triazolo[4,3-c]pyrimidin-8-yl)-5-morpholinoimidazo[1,2-a]pyridine-3-carbonitrile], the 50% inhibitory concentration (IC50) (in the experiment with KARPAS-422 cells; in experiment [1]) was 0.0013 µM each time.

Take `COc1cc(-c2cnc(NCc3c(F)ccc4c3CCO4)n3cnnc23)c2ncc(C#N)n2c1` [8-(5-(((5-fluoro-2,3-dihydrobenzofuran-4-yl)methyl)amino)-[1,2,4]triazolo[4,3-c]pyrimidin-8-yl)-6-methoxyimidazo[1,2-a]pyridine-3-carbonitrile]: the IC50 turned out to be 0.0045 µM in the experiment on KARPAS-422 cells and 0.0042 µM in experiment [1].

Turning to `Cc1ccc(-c2cnc(NCc3c(F)ccc4c3CCO4)n3cnnc23)c2nc(C(=O)N(C)C)cn12` [8-(5-(((5-fluoro-2,3-dihydrobenzofuran-4-yl)methyl)amino)-[1,2,4]triazolo[4,3-c]pyrimidin-8-yl)-N,N,5-trimethylimidazo[1,2-a]pyridine-2-carboxamide], the IC50 stood at 0.0028 µM in the experiment with KARPAS-422 cells and 0.0023 µM in experiment [1].

Turning to `Cc1ccc(-c2cnc(NCc3c(F)ccc4c3CCO4)n3cnnc23)c2ncc(C(=O)N(C)C)n12` [8-(5-(((5-fluoro-2,3-dihydrobenzofuran-4-yl)methyl)amino)-[1,2,4]triazolo[4,3-c]pyrimidin-8-yl)-N,N,5-trimethylimidazo[1,2-a]pyridine-3-carboxamide], the IC50 in the experiment on KARPAS-422 cells came out at 0.0012 µM; in experiment [1], 0.0014 µM.

For the molecule `CN(C)C(=O)c1ccc(-c2cnc(NCc3c(F)ccc4c3CCO4)n3cnnc23)c2nccn12` [8-(5-(((5-fluoro-2,3-dihydrobenzofuran-4-yl)methyl)amino)-[1,2,4]triazolo[4,3-c]pyrimidin-8-yl)-N,N-dimethylimidazo[1,2-a]pyridine-5-carboxamide], the 50% inhibitory concentration (IC50) stood at 0.0013 µM with KARPAS-422 cells and 0.0007 µM in experiment [1].

For `N#Cc1ccc(-c2cnc(NCc3c(F)ccc4c3CCO4)n3cnnc23)c2nccn12` [8-(5-(((5-fluoro-2,3-dihydrobenzofuran-4-yl)methyl)amino)-[1,2,4]triazolo[4,3-c]pyrimidin-8-yl)imidazo[1,2-a]pyridine-5-carbonitrile], the results for the IC50 (in the experiment on KARPAS-422 cells; in experiment [1]) were 0.0036 µM and 0.0048 µM, respectively.
